Here are results for one compound from patent US10689622B2, “Culture medium for proliferating stem cell, which contains sulfated compound” (AJINOMOTO CO., INC., priority 2012, dated 2020).

Assay [1] concerns the target T1, bFGF (Homo sapiens, UniProt P09038).
T1 construct: purchased Lonza (via TAKARA BIO INC.) Ser. No. 00/190,632
In words: Evaluation of bFGF stabilization in ReproFF2 medium (ELISA). It counts as biochemical. The note with it: 37° C. for 7 days. On the procedure:
A commercially available measurement kit (human bFGF ELISA kit, ELH-bFGF-001, Ray Biotech) was used for quantification of bFGF in the medium. The measurement procedures followed the protocol attached to the kit. The bFGF concentration of the serum-free medium was calculated from the analytical curve (conversion formula) drawn from the absorbance of an analytical curve standard solution. The evaluation criteria of Tables 5-8 are as follows:
A test compound was dissolved in phosphate buffered saline, and diluted 10-fold with a serum-free medium to adjust the concentration shown in Table 4 (test sample). The test sample was left standing in a tightly sealed Falcon tube at 37° C. for 7 days, and the bFGF concentration was quantified by ELISA measurement. A phosphate buffered saline without a test compound was diluted 10-fold with Essential 8 medium or ReproFF2 medium, and left standing at 37° C. or 4° C. for 7 days, and used as a control.
A commercially available measurement kit (human bFGF ELISA kit, ELH-bFGF-001, Ray Biotech) was used for quantification of bFGF in the medium. The measurement procedures followed the protocol attached to the kit. The bFGF concentration of the serum-free medium was calculated from the analytical curve (conversion formula) drawn from the absorbance of an analytical curve standard solution. The evaluation criteria of Table 13 are as follows:
A test compound was dissolved in phosphate buffered saline, and diluted 10-fold with a serum-free medium to adjust the concentration shown in Table 12 (test sample). The test sample was left standing in a tightly sealed Falcon tube at 37° C. for 7 days, and the bFGF concentration was quantified by ELISA measurement. A phosphate buffered saline without a test compound was diluted 10-fold with Essential 8 medium or ReproFF2 medium, and left standing at 37° C. or 4° C. for 7 days, and used as a control.

In assay [2] the target is T1, bFGF. In words: Evaluation of bFGF stabilization in Lonza serum-free medium (ELISA). It is filed as biochemical. In a few lines:
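Compound in PBS diluted 10-fold into serum-free medium and held sealed at 37 °C for 7 days (some sets 3 days). Remaining bFGF quantified by human bFGF sandwich ELISA against a standard curve. Controls were compound-free PBS-medium kept at 37 °C or 4 °C for the same period.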
Background: In an ELISA, binding on a coated surface is turned into a signal by an enzyme label.

For a further assay, the system named is iPS cell 201B7 strain. Nature of the assay: iPS cell proliferation system (cell number). It counts as cell-based, human. The note with it: matrigel, Essential-8 medium. On the procedure: The cell proliferation effect of various test compounds was evaluated using artificial pluripotent stem cell (iPS cell). 201B7 strain purchased from iPS Academia Japan, Inc. was grown in a culture container coated with a basal lamina matrix (matrigel manufactured by Nippon Becton Dickinson Company, Ltd., or a fragment containing an active domain of laminin 511 purchased from OSAKA UNIVERSITY) (Becton, Dickinson and Company, Falcon culture petri dish or Falcon culture plate), contained in a feeder-free medium for human ES/iPS cell (ReproCELL Inc, ReproFF2).
In this medium were suspended iPS cells in colony state, and a 2.5- to 3.5-fold diluted amount of the original culture was plated on a 6-well culture plate coated with a basal lamina matrix (Nippon Becton Dickinson Company, Ltd., Falcon culture plate). […] After culturing for 6 to 12 days, the medium was removed, the cells were detached from the culture plate by a trypsin-EDTA (Sigma-Aldrich Ltd.) or TrypLE Select (Invitrogen) treatment and the cell number was measured. The cell number was measured by the method described in “Kaitei Saibou baiyou Nyuumon Note, page 77-83, 2010, YODOSHA CO., LTD.” which is incorporated herein by reference in its entirety.
When the cells were seeded in a dissociation state of the cells (single cell state), a test compound solution after filter sterilization was added to a medium containing Y-27632 (Nacalai Tesque) to a given concentration, and dispensed to a 6 well culture plate. Thereto were plated iPS cells suspended in a medium containing Y-27632 at 100,000 cells/well, and cultured for 6 to 8 days. On the next day of seeding, the medium was exchanged to a medium (without Y-27632) added with the test compound alone. When medium exchange was necessary, the medium was exchanged every 2 or 3 days. […] After culturing for 6 to 8 days, the cell number was measured by a method similar to that mentioned above.
When the evaluation was performed in Essential 8 medium (Invitrogen), which is a different feeder-free medium for iPS cell, iPS cells cultured in a medium obtained by adding human serum albumin (Sigma-Aldrich Co. LLC) to Essential 8 medium were used.

Structures are written as SMILES.

T1 sequence (P09038 143-288): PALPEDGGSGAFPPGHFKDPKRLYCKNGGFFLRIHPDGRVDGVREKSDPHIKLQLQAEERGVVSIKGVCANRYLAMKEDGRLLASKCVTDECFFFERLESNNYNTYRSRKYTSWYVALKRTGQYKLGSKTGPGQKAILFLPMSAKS

Regarding `O=S(=O)([O-])OC[C@H]1O[C@@](COS(=O)(=O)[O-])(O[C@H]2O[C@H](COS(=O)(=O)[O-])[C@@H](OS(=O)(=O)[O-])[C@H](OS(=O)(=O)[O-])[C@H]2OS(=O)(=O)[O-])[C@@H](OS(=O)(=O)[O-])[C@@H]1OS(=O)(=O)[O-].[K+].[K+].[K+].[K+].[K+].[K+].[K+].[K+]` [sucrose 8SO3K], at bFGF [1], the “concentration showing a suppressive effect on a decrease in the bFGF concentration of the medium” value was “not less than 250 pg/ml”. Besides, the “bFGF concentration relative to that of 4° C. control (ELISA)” value (“bFGF concentration relative to that” below) was “− (bFGF concentration was not less than 10% and less than 30% relative to that of 4 °C control)” on bFGF [1] (test compound 250 pg/ml); “+++ (bFGF concentration was not less than 70% relative to that of 4 °C control)” at bFGF [1] (test compound 25 ng/ml); “+++ (bFGF concentration was not less than 70% relative to that of 4 °C control)” at bFGF [1] (test compound 250 ng/ml); “++ (bFGF concentration was not less than 50% and less than 70% relative to that of 4 °C control)” at bFGF [1] (test compound 25 μg/ml); “+++ (bFGF concentration was not less than 70% relative to that of 4 °C control)” at bFGF [1] (test compound 250 μg/ml); “x (bFGF concentration was less than 10% relative to that of 4 °C control)” on bFGF [2] (Lonza serum-free medium, 37° C. for 3 days, test compound 25 ng/ml). Besides, the “bFGF concentration relative to that” value was “− (bFGF concentration was not less than 10% and less than 30% relative to that of 4 °C control)” at bFGF [2] (Lonza serum-free medium, 37° C. for 3 days, test compound 250 ng/ml); “+++ (bFGF concentration was not less than 70% relative to that of 4 °C control)” at bFGF [2] (Lonza serum-free medium, 37° C. for 3 days, test compound 25 μg/ml); “+++ (bFGF concentration was not less than 70% relative to that of 4 °C control)” at bFGF [2] (Lonza serum-free medium, 37° C. for 3 days, test compound 250 μg/ml); “x (bFGF concentration was less than 10% relative to that of 4 °C control)” at bFGF [2] (Lonza serum-free medium, 37° C. for 7 days, test compound 25 ng/ml); “x (bFGF concentration was less than 10% relative to that of 4 °C control)” on bFGF [2] (Lonza serum-free medium, 37° C. for 7 days, test compound 250 ng/ml); “− (bFGF concentration was not less than 10% and less than 30% relative to that of 4 °C control)” at bFGF [2] (Lonza serum-free medium, 37° C. for 7 days, test compound 25 μg/ml). For the same compound, the “bFGF concentration relative to that” value on bFGF [2] (Lonza serum-free medium, 37° C. for 7 days, test compound 250 μg/ml) was “+ (bFGF concentration was not less than 30% and less than 50% relative to that of 4 °C control)”. Further, the “concentration showing a suppressive effect on a decrease in the bFGF concentration in the medium” value on bFGF [2] (Lonza serum-free medium, 37° C. for 3 days) is on record as “not less than 250 ng/ml”. For the same compound, the “effectiveness ELISA” value at bFGF [2] (effectiveness in ELISA evaluation of mesenchymal stem cells (medium), 4° C. control ratio) was “+ (+ 30%<)”. For the same compound, the “number of cells relative to control” value with iPS cell 201B7 strain (test compound 25 ng/ml) and with iPS cell 201B7 strain (test compound 250 ng/ml) was “◯ (not less than 100%: ◯)” in each case.
